Measurements as given in patent publication US5156955A, “Nucleoside oxidase and assay method utilizing same” (priority 1988, dated 1992).
Where two headings read alike, the source gives them in different places.

Legend:
nucleoside oxidase YT-1 [1] = test: Substrate specificity test (nucleoside oxidase activity, oxygen consumption); type: biochemical, Pseudomonas maltophilia LB-86; conditions: for Relative activity: relative to activity on inosine taken as 100; for Substrate specificity (enzyme active / not active on substance): statement in words
Protocol: (§1) The consumption of 1 μM of oxygen per minute is taken as 1 unit (U).

nucleoside oxidase YT-1 [2] = type: biochemical, Pseudomonas maltophilia LB-86; conditions: for Effect of inhibitor (enzyme inhibited): statement in words
Protocol: A solution of the present enzyme (0.02 U) was caused to act on inosine at pH 6.0 and 25° C. for 10 minutes in the presence of various inhibitors, and the enzymatic activity was thereafter measured.

nucleoside oxidase YT-1 [3] = test: Enzymatic activity test I: oxidation reaction products and stoichiometry; type: biochemical, Pseudomonas maltophilia LB-86; conditions: for change on reaction with the enzyme sample (HPLC): peak separated off by HPLC and reacted with enzyme; for oxygen consumption: 1 ml 100 mM phosphate buffer
Protocol: During a reaction period of 0 to 800 minutes, the reaction muxture was partly collected at suitable time intervals and analyzed by high performance liquid chromatography (HPLC) with a column of Fine SIL C18 (product of Japan Spectroscopic Co., Ltd.) using as a solvent 50 mM phosphate buffer (pH 3.0)/methanol=95/5 at a flow rate of 1.5 ml/min. Absorption was detected at 260 nm.
The amount of oxygen consumption was determined by an oxygen electrode, the amount of P-2 produced from the peak area of HPLC, and the amount of hydrogen peroxide by the phenol-4-aminoantipyrine peroxidase method and the ferrithiocyanide method (Ronald Thurman et al., Eur. J. Biochem., 25, 420-430 (1972)).

nucleoside oxidase YT-1 [4] = test: Influence of metal ions on the activity; type: biochemical, Pseudomonas maltophilia LB-86; conditions: enzyme 0.02 U on inosine, pH 6.0, 25° C., 10 minutes
Protocol: A solution of the enzyme (0.02 U) was caused to act on inosine at pH 6.0 and 25° C. for 10 minutes in the presence of various metal ions, and the activity of the enzyme was thereafter measured to check the influence of the metal ions on the activity.

nucleoside oxidase YT-1 [5] = test: Specificity test on laccase substrate (laccase-like activity in presence of inosine); type: biochemical, Pseudomonas maltophilia LB-86; conditions: 1 mM laccase substrate, 7 mM inosine, one unit enzyme, 5 minutes
Protocol: The present enzyme was tested for the substrate specificity of its laccase-like activity in the presence of 7 mM inosine in the following manner. One unit of the present enzyme was added to a specimen containing 7 mM of inosine and 1 mM of the laccase substrate shown in Table 5, and the mixture was allowed to stand for 5 minutes. The absorption spectrum of the specimen was obtained before and after the addition of the enzyme.

nucleoside oxidase YT-1 [6] = test: Km value; type: biochemical, Pseudomonas maltophilia LB-86; conditions: read-out: apparent Km value
Protocol: as §1

nucleoside oxidase YT-1 [7] = conditions: for Amount of oxygen consumption / Amount of p-quinone formed: 0.06 μM inosine
[8] = inhibitor 1 mM, enzyme 0.02 U on inosine, pH 6.0, 25° C., 10 minutes
[9] = inhibitor 10 mM, enzyme 0.02 U on inosine, pH 6.0, 25° C., 10 minutes
[10] = nucleoside oxidase yt-1, pH 6, 10 min, 1000 µM
[11] = 0.02 μM 1,4-hydroquinone, 1 U enzyme, pH 7.0
[12] = 0.06 μM 1,4-hydroquinone, 1 U enzyme, pH 7.0
[13] = 0.60 μM 1,4-hydroquinone, 1 U enzyme, pH 7.0

Nc1ccn([C@@H]2O[C@H](CO)[C@@H](O)[C@H]2O)c(=O)n1 [Cytidine]
Relative activity (nucleoside oxidase YT-1 [1]; substrate 10 mM): 77.5%

[N-]=[N+]=[N-] [Sodium azide]
Relative activity (nucleoside oxidase YT-1 [2]; [8]): 81.5% | Relative activity (nucleoside oxidase YT-1 [2]; [9]): 45.6% | Effect of inhibitor (enzyme inhibited) (nucleoside oxidase YT-1 [2]): inhibited

O=c1ccn([C@@H]2O[C@H](CO)[C@@H](O)[C@H]2O)c(=O)[nH]1 [Uridine]
Relative activity (nucleoside oxidase YT-1 [1]; substrate 10 mM): 92.8%

O=C(O)CN(CCN(CC(=O)O)CC(=O)O)CC(=O)O [EDTA]
Relative activity (nucleoside oxidase YT-1 [2]; [10]): 101%

c1ccc(-c2ccccn2)nc1 [α,α'-Dipyridyl]
Relative activity (nucleoside oxidase YT-1 [2]; [8]): 96.7%

O=C(O)[C@H]1O[C@@H](n2cnc3c(=O)[nH]cnc32)[C@H](O)[C@@H]1O [P-2, inosine-5'-carboxylic acid]
change on reaction with the enzyme sample (HPLC) (nucleoside oxidase YT-1 [3]): exhibited no change

Nc1cc[nH]c(=O)n1 [Cytosine]
Relative activity (nucleoside oxidase YT-1 [1]; substrate 20 mM): 0%

O=S(=O)([O-])[O-].[Mg+2] [MgSO4]
Relative activity (nucleoside oxidase YT-1 [4]; metal salt 0.1 mM): 102%

NN.O=S(=O)(O)O [Hydrazine sulfate]
Relative activity (nucleoside oxidase YT-1 [2]; [8]): 101%

O=C[C@H]1O[C@@H](n2cnc3c(=O)[nH]cnc32)[C@H](O)[C@@H]1O [P-1, inosine-5'-aldehyde]
oxygen consumption (nucleoside oxidase YT-1 [3]; 100 nanomoles of P-1, one U enzyme): 48 nmol | hydrogen peroxide formed (nucleoside oxidase YT-1 [3]; 100 nanomoles of P-1 as substrate): No hydrogen peroxide was detected | P-2 produced (nucleoside oxidase YT-1 [3]; from 100 nanomoles of P-1, one U enzyme): 97 nmol | change on reaction with the enzyme sample (HPLC) (nucleoside oxidase YT-1 [3]): changed into P-2 with consumption of oxygen

Mercury p-chorobenzoate
Relative activity (nucleoside oxidase YT-1 [2]; [8]): 98.9%

O=C1C=CC(=O)C=C1 [p-Quinone]
Change in absorption spectrum due to reaction (nucleoside oxidase YT-1 [5]): No change

Nc1ncnc2c1ncn2[C@H]1C[C@H](O)[C@@H](CO)O1 [Deoxyadenosine]
Relative activity (nucleoside oxidase YT-1 [1]; substrate 10 mM): 81.4%

Nc1ccc(O)cc1 [p-Aminophenol]
Change in absorption spectrum due to reaction (nucleoside oxidase YT-1 [5]): New peak at 360 nm

c1cnc2c(c1)ccc1cccnc12 [o-Phenanthroline]
Relative activity (nucleoside oxidase YT-1 [2]; [8]): 94.7%

O=C(O)/C=C/c1ccc(O)c(O)c1 [Caffeic acid]
Change in absorption spectrum due to reaction (nucleoside oxidase YT-1 [5]): New peak at 310 nm

(NH4)6 Mo7 O24
Relative activity (nucleoside oxidase YT-1 [4]; metal salt 0.1 mM): 106% | Relative activity (nucleoside oxidase YT-1 [4]; metal salt 1.0 mM): 102%

O=S(=O)([O-])[O-].[Fe+2] [FeSO4]
Relative activity (nucleoside oxidase YT-1 [4]; metal salt 0.1 mM): 93.4%

Nc1ncnc2c1ncn2[C@@H]1O[C@H](COP(=O)(O)O)[C@@H](O)[C@H]1O [5'-AMP, 5'-adenosine monophosphate]
Relative activity (nucleoside oxidase YT-1 [1]; substrate 10 mM): 0%

O=P(O)(O)OC[C@H]1OC(O)[C@H](O)[C@@H]1O (stereo partly drawn) [D-ribose-5-phosphoric acid]
Relative activity (nucleoside oxidase YT-1 [1]; substrate 20 mM): 0%

Cc1cn([C@H]2C[C@H](O)[C@@H](CO)O2)c(=O)[nH]c1=O [Thymidine]
Relative activity (nucleoside oxidase YT-1 [1]; substrate 10 mM): 55.8%

Nc1nc2c(ncn2[C@@H]2O[C@H](CO)[C@@H](O)[C@H]2O)c(=O)[nH]1 [Guanosine]
Relative activity (nucleoside oxidase YT-1 [1]; substrate 10 mM): 121%

O=S(=O)([O-])[O-].[Zn+2] [ZnSO4]
Relative activity (nucleoside oxidase YT-1 [4]; metal salt 0.1 mM): 106% | Relative activity (nucleoside oxidase YT-1 [4]; metal salt 1.0 mM): 98.9%

O=C1CCC(=O)N1Br [N-Bromosuccinimide]
Relative activity (nucleoside oxidase YT-1 [2]; [8]): 0% | Effect of inhibitor (enzyme inhibited) (nucleoside oxidase YT-1 [2]): inhibited

Nc1ccc(N)cc1 [p-Phenylendiamine]
Change in absorption spectrum due to reaction (nucleoside oxidase YT-1 [5]): New peak at 490 nm

OC[C@H]1O[C@@H](n2cnc3c(O)ncnc32)[C@H](O)[C@@H]1O [Inosine]
Substrate specificity (enzyme active / not active on substance) (nucleoside oxidase YT-1 [1]): Active | Relative activity (nucleoside oxidase YT-1 [1]; substrate 10 mM): 100% | Km (nucleoside oxidase YT-1 [6]): 44 µM | hydrogen peroxide formed (nucleoside oxidase YT-1 [3]; 50 nanomoles of inosine as substrate): No hydrogen peroxide was detected | oxygen consumption (nucleoside oxidase YT-1 [3]; 50 nanomoles of inosine, one U enzyme): 51 nmol | P-2 produced (nucleoside oxidase YT-1 [3]; from 50 nanomoles of inosine, one U enzyme): 47 nmol

O=c1[nH]cnc2nc[nH]c12 [Hypoxanthine]
Substrate specificity (enzyme active / not active on substance) (nucleoside oxidase YT-1 [1]): not active | Relative activity (nucleoside oxidase YT-1 [1]; substrate 5.2 mM): 0%

O=S(=O)([O-])[O-].[Mn+2] [MnSO4]
Relative activity (nucleoside oxidase YT-1 [4]; metal salt 0.1 mM): 103%

O=c1[nH]c(=O)c2ncn([C@@H]3O[C@H](CO)[C@@H](O)[C@H]3O)c2[nH]1 [Xanthosine]
Relative activity (nucleoside oxidase YT-1 [1]; substrate 10 mM): 125%

CCN(CC)C(=S)S [Sodium N,N'-Diethylditiocarbamate, Sodium N,N'-Diethylditio-carbamate]
Relative activity (nucleoside oxidase YT-1 [2]; [8]): 271%

O=c1cc[nH]c(=O)[nH]1 [Uracil]
Relative activity (nucleoside oxidase YT-1 [1]; substrate 20 mM): 0%

Oc1ccc(O)cc1 [1,4-Hydroquinone]
Change in absorption spectrum due to reaction (nucleoside oxidase YT-1 [5]): New peak at 243 nm | Amount of oxygen consumption (nucleoside oxidase YT-1 [7]; [11]): 0.069 µM | Amount of p-quinone formed (nucleoside oxidase YT-1 [7]; [11]): 0.019 µM | Amount of oxygen consumption (nucleoside oxidase YT-1 [7]; [12]): 0.089 µM | Amount of p-quinone formed (nucleoside oxidase YT-1 [7]; [12]): 0.060 µM | oxygen used for oxidizing 1,4-hydroquinone (nucleoside oxidase YT-1 [7]; 0.115 μM minus 0.06 μM used for inosine, 0.12 μM 1,4-hydroquinone): 0.055 µM | Amount of p-quinone formed (nucleoside oxidase YT-1 [7]; 0.12 μM 1,4-hydroquinone, 1 U enzyme, pH 7.0): 0.115 µM | Amount of oxygen consumption (nucleoside oxidase YT-1 [7]; 0.12 μM 1,4-hydroquinone, 1 U enzyme, pH 7.0 (Table 3)): 0.112 µM | Amount of oxygen consumption (nucleoside oxidase YT-1 [7]; 0.12 μM 1,4-hydroquinone, room temperature, 10 minutes (stoichiometry test)): 0.115 µM | Amount of oxygen consumption (nucleoside oxidase YT-1 [7]; [13]): 0.115 µM | Amount of p-quinone formed (nucleoside oxidase YT-1 [7]; [13]): 0.119 µM | laccase reaction without nucleoside (nucleoside oxidase YT-1 [7]; enzyme mixed with laccase substrate, no nucleoside present): no reaction occurs

Oc1cccc(O)c1O [Pyrogallol]
Change in absorption spectrum due to reaction (nucleoside oxidase YT-1 [5]): New peak at 370 nm

O=c1[nH]c(=O)c2[nH]cnc2[nH]1 [Xanthine]
Relative activity (nucleoside oxidase YT-1 [1]; substrate 0.4 mM): 0%

Cc1c[nH]c(=O)[nH]c1=O [Thymine]
Relative activity (nucleoside oxidase YT-1 [1]; substrate 20 mM): 0%

Nc1ncnc2nc[nH]c12 [Adenine]
Relative activity (nucleoside oxidase YT-1 [1]; substrate 10 mM): 0%

Nc1ncnc2c1ncn2[C@@H]1O[C@H](CO)[C@@H](O)[C@H]1O [Adenosine]
Relative activity (nucleoside oxidase YT-1 [1]; substrate 10 mM): 97.3%

Cc1cn([C@H]2C[C@H](O)[C@@H](CO)O2)c(=O)[nH]c1=O [Deoxythymidine]
Relative activity (nucleoside oxidase YT-1 [1]; substrate 10 mM): 77.3%

O=C[C@H](O)[C@H](O)[C@H](O)CO [D-ribose]
Substrate specificity (enzyme active / not active on substance) (nucleoside oxidase YT-1 [1]): not active | Relative activity (nucleoside oxidase YT-1 [1]; substrate 20 mM): 0%

Cc1cc(O)cc(O)c1 [Orcinol]
Change in absorption spectrum due to reaction (nucleoside oxidase YT-1 [5]): New peak at 340 nm

N#CO [Potassium cyanate]
Relative activity (nucleoside oxidase YT-1 [2]; [8]): 34.8% | Relative activity (nucleoside oxidase YT-1 [2]; [9]): 0% | Effect of inhibitor (enzyme inhibited) (nucleoside oxidase YT-1 [2]): inhibited | Effect of inhibitor (enzyme inhibited) (nucleoside oxidase YT-1 [2]; listed as potassium cianate): Inhibited

[Cl][Hg][Cl] [HgCl2]
Relative activity (nucleoside oxidase YT-1 [2]; [8]): 69.2%

[Cl-].[Cl-].[Co+2] [CoCl2]
Relative activity (nucleoside oxidase YT-1 [4]; metal salt 0.1 mM): 103%

Nc1nc2c(ncn2[C@@H]2O[C@H](COP(=O)(O)O)[C@@H](O)[C@H]2O)c(=O)[nH]1 [5'-GMP]
Relative activity (nucleoside oxidase YT-1 [1]; substrate 10 mM): 0%

OC[C@H]1O[C@@H](n2cnc3c(O)ncnc32)C[C@@H]1O [Deoxyinosine]
Relative activity (nucleoside oxidase YT-1 [1]; substrate 10 mM): 80.7%

O=C(O)CI [Iodoacetic acid]
Relative activity (nucleoside oxidase YT-1 [2]; [10]): 100%

O=P(O)(O)OC1O[C@H](CO)[C@@H](O)[C@H]1O (stereo partly drawn) [D-ribose-1-phosphoric acid]
Relative activity (nucleoside oxidase YT-1 [1]; substrate 20 mM): 0%

O=S(=O)(F)Cc1ccccc1 [Phenylmethylsulfonyl fluoride]
Relative activity (nucleoside oxidase YT-1 [2]; [8]): 95.3%

O=CC[C@H](O)[C@H](O)CO [2-Deoxy-D-ribose]
Relative activity (nucleoside oxidase YT-1 [1]; substrate 20 mM): 0%

NO [Hydroxylamine]
Relative activity (nucleoside oxidase YT-1 [2]; [8]): 87.8% | Relative activity (nucleoside oxidase YT-1 [2]; [9]): 63.2%

Nc1ncnc2c1ncn2[C@@H]1O[C@H](COP(=O)(O)OP(=O)(O)OP(=O)(O)O)[C@@H](O)[C@H]1O [5'-ATP]
Relative activity (nucleoside oxidase YT-1 [1]; substrate 10 mM): 0%

Nc1ncnc2c1ncn2[C@@H]1O[C@H](COP(=O)(O)OP(=O)(O)O)[C@@H](O)[C@H]1O [5'-ADP]
Relative activity (nucleoside oxidase YT-1 [1]; substrate 10 mM): 0%

CC(=O)[O-].CC(=O)[O-].[Pb+2] [Pb(CH3 COO)2]
Relative activity (nucleoside oxidase YT-1 [2]; [8]): 81.3%

CCN(CC)CCCC(C)Nc1c2ccc(Cl)cc2nc2ccc(OC)cc12 (centres unmarked) [Quinacrine]
Relative activity (nucleoside oxidase YT-1 [2]; [8]): 95.6%

Nc1nc2nc[nH]c2c(=O)[nH]1 [Guanine]
Relative activity (nucleoside oxidase YT-1 [1]; substrate 0.4 mM): 0%

Nc1nc2c(ncn2[C@H]2C[C@H](O)[C@@H](CO)O2)c(=O)[nH]1 [Deoxyguanosine]
Relative activity (nucleoside oxidase YT-1 [1]; substrate 10 mM): 92.3%
